This test concerns CEM cells HIV-1 protection, formazan growth assay. The experiment in a line: NCI AIDS Antiviral Assay. The note with it: for IC50: measured here: growth of uninfected CEM cells. The method, boiled down:
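CEM (human) cells, HIV-1 infected vs uninfected, 5-point dosing, formazan growth read-out. Retest threshold 50% protection.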

Activity calls are given as the source filed them.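 Rule for the calls: active = compounds giving half or more protection of infected cells from virus-caused growth loss, again on retest; inactive = the rest.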 Where a SMILES comes first, the peptide text is derived from it. [ ]: non-standard residue; d: D form. The star is where a group is joined. ξ: configuration not given here. ξD = NC(CC(=O)O)C(=O)O; Boc = CC(C)(C)OC(=O)*; Aib = CC(C)(N)C(=O)O; OBn = c1ccc(CO*)cc1 Some results are limits rather than exact numbers.

As a reminder, the EC50 is the concentration needed to bring the measured effect to its halfway point. As usually defined, the IC50 is the point on the concentration scale where inhibition reaches its midpoint. Read a high IC50 as a need for much substance. Turning to `COc1ccc(/C=N/Nc2nc3ccccc3c(=O)n2-c2ccccc2)cc1`, the EC50 is over 200 µM and the half-maximal inhibitory concentration (IC50) was over 200 µM.
For the compound `CC(CCC(=O)O)C1CCC2C3C(O)CC4CC(O)CCC4(C)C3CC(O)C12C` (stereo not given) (tested in a mixture with another compound), the EC50 is over 200 µM and the 50% inhibitory concentration (IC50) is over 200 µM.
Turning to `CSc1nc(NC(=O)c2ccc([N+](=O)[O-])cc2)c(C(=O)NC(C)C)s1`, the EC50 was over 200 µM and the IC50 was 138 µM.
For `Cc1ccccc1NC(=O)CC(=O)n1nc(-c2ccccc2)c(N=Nc2ccc([N+](=O)[O-])cc2)c1-c1ccccc1` the same measures were over 25.1 µM and 16.2 µM.
For `CCOC(=O)/C(C#N)=C/c1cccc(C)c1` the same measures were over 120 µM and over 120 µM.
On to `COC(=O)CCC(=O)Nc1ccc(Cl)cc1C`, for which the result was inactive.
Consider `COc1cccc(C(=O)O)c1Cc1cccc2ccccc12`, for which the outcome was inactive.
Still for that read-out and setting: then `Cc1cc(NCCCCCCNc2cc(C)nc3cc(N(C)C)ccc23)c2ccc(N(C)C)cc2n1`, with “inactive”.
On to `O=[N+]([O-])/C(C=Nc1ccccc1)=C/Nc1ccccc1`, for which the EC50 was over 200 µM and the IC50 amounted to 105 µM.
For `O=C1c2ccccc2Sc2ccccc2N1CCCN1CCN(c2ccc(F)cc2)CC1` the same measures were over 200 µM and 33.9 µM.
As for `C=C(C)CNC1=C(C)C(=O)C2=C(C1=O)[C@H](COC(N)=O)[C@]1(OC)[C@@H]3N[C@@H]3CN21`, the EC50 was over 200 µM and the IC50 is 14.5 µM.
Regarding `Oc1ccc2c(c1)-c1c(c3ccccc3n1CCN1CCOCC1)CC2`, the EC50 was over 200 µM and the IC50 was found to be 32.4 µM.
Regarding `C[N+]1(CCNP(=S)(NCC[N+]2(C)Cc3c(ccc4c3OCO4)C3C2c2cc4c(cc2C[C@@H]3O)OCO4)NCC[N+]2(C)Cc3c(ccc4c3OCO4)C3C2c2cc4c(cc2C[C@@H]3O)OCO4)Cc2c(ccc3c2OCO3)C2C1c1cc3c(cc1C[C@H]2O)OCO3` (stereo not given in full), the EC50 is over 380 µM and the IC50 amounted to 4.68 µM.
For `Nc1nccc(Nc2ccc(S(N)(=O)=O)cc2)n1` the same measures were over 200 µM and 135 µM.
Consider `N#CC(=C=[N-])[n+]1ccc(Cl)cc1`, for which the outcome was inactive.
Regarding `O=C1c2ccccc2C(=O)c2nc(-c3ccccc3)c(-c3ccccc3)nc21`, the outcome was inactive.
Turning to `O=C(CCc1n[nH]c(=S)o1)Nc1ccc(Cl)cc1Cl`, the EC50 was over 31.6 µM and the 50% inhibitory concentration (IC50) is over 31.6 µM.
On to `CCC(=O)OC1CCn2c1nc1c2C(=O)C(C)=C(NC(C)=O)C1=O` (stereo not given), for which the EC50 was over 200 µM and the IC50 stood at 1.23 µM.
In the same order, the values of `CCCc1cc(=O)oc2c3c(c4c(c12)OC(C)(C)[C@@H](OC(=O)c1ccc(Br)cc1)[C@H]4OC(=O)c1ccc(Br)cc1)O[C@@H](C)[C@H](C)[C@@H]3OC(=O)c1ccc(Br)cc1` are over 200 µM and over 200 µM.
Consider `CCc1ccc(/C(C#N)=C/c2ccc(N(C)CCC#N)cc2)cc1`, for which the EC50 was over 200 µM and the IC50 was found to be 3.55 µM.
For `CCC(=O)NC1=CC(=O)C(=O)c2cccnc21`, the result was inactive.
In the case of `Cn1c(=O)cc(N=Nc2ccc(Cl)c(Cl)c2)[nH]c1=O`, the EC50 was over 200 µM and the IC50 was 16.2 µM.
Regarding `C[Si](C)(C)/C(Br)=C\CCN1C(=O)CCC1O` (stereo not given), the result was inactive.
In the case of `CC(C)(C)CC1=CC(=C2C=C(CC(C)(C)C)C(=O)C(CC(C)(C)C)=C2)C=C(CC(C)(C)C)C1=O`, the EC50 was over 15.5 µM and the IC50 is over 15.5 µM.
As for `CC(=O)C1CC[C@@H]2[C@H](CC[C@]3(C)[C@@H](O)CC[C@@H]23)[C@H]1C(=O)O` (stereo not given in full), the EC50 is over 200 µM and the IC50 was over 200 µM.
Take `COC(=O)CCC1CCc2c(OC)ccc(O)c2C1=O` (stereo not given): the result was inactive.
For the compound `O=C(O)C12CC=CCC1(C(=O)O)CC=CC2` (stereo not given), the EC50 was over 200 µM and the IC50 is over 200 µM.
In the case of `C=C1C(OC(=O)CC(c2ccccc2)N(C)C)C[C@H](OC(C)=O)[C@]2(C)C1C[C@@H]1CC(OC(C)=O)C(C)=C([C@@H](OC(C)=O)C2OC(C)=O)C1(C)C` (stereo not given in full), the outcome was inactive.
On to `CC(C)CCCC(C)[C@H]1CC[C@H]2[C@@H]3CC[C@H]4C[C@@H](CCC=C(c5cc(Cl)c(OCc6ccc(B(O)O)cc6)c(C(=O)O)c5)c5cc(Cl)c(OCc6ccc(B(O)O)cc6)c(C(=O)O)c5)CC[C@]4(C)[C@H]3CC[C@]12C` (stereo not given in full), for which the EC50 was 5.89 µM and the IC50 was 93.3 µM.
In the case of `CN(C)CCCOc1c(Br)cc(CCN(C)C)cc1Br`, the result was inactive.
In the case of `O=C1c2ccccc2-c2nccc3c2c1nc1ccccc13`, the EC50 was over 200 µM and the IC50 stood at 8.32 µM.
On to `O=P(Oc1ccccc1)(Oc1ccccc1)N1CCOCC1`, for which the EC50 was over 200 µM and the IC50 stood at 170 µM.
In the same order, the values of `CCCCCCCCOC(=O)CC(C(=O)OCCCCCCCC)S(=O)(=O)O` (stereo not given) are over 200 µM and 117 µM.
On to `CC(=O)OC12c3ccccc3C(c3ccccc31)C1C(=O)N(c3ccccn3)C(=O)C12` (stereo not given), for which the EC50 is over 200 µM and the IC50 was over 200 µM.
Consider `CC1CC/C(=C\c2ccc(Cl)cc2)c2nc(N)c(C#N)c(-c3ccc(Cl)cc3)c21` (stereo not given), for which the EC50 is over 200 µM and the IC50 was 155 µM.
As to `CN(C)Cc1cc(C(=O)/C=C/c2ccc(Br)cc2)cc(CN(C)C)c1O`, the EC50 was over 200 µM and the IC50 worked out at 4.47 µM.
As for `Brc1ccc2c(c1)C1=C(CO2)Cc2ccccc2O1`, the result was inactive.
For the compound `O=S(=O)(F)c1ccc(C[P+](c2ccccc2)(c2ccccc2)c2ccccc2)cc1Cl`, the EC50 is over 200 µM and the IC50 was found to be 97.7 µM.
Regarding `[Cu+2].[NH-]c1cc(N)ccc1O.[NH-]c1cc(N)ccc1O`, the result was inactive.
Turning to `CN(C)C(C(N)=O)c1ccccc1` (stereo not given), the EC50 is over 200 µM and the IC50 was over 200 µM.
For `COc1ccc2c(NCCCCCCNc3c4ccccc4nc4cc(OC)ccc34)c3ccccc3nc2c1`, the result was inactive.
Regarding `O=C1CC(Br)C(c2ccccc2)(c2ccccc2)O1` (stereo not given), the EC50 is over 81.3 µM and the IC50 was over 81.3 µM.
Take `C=C1CC(CNc2cc(Cl)nc(N)n2)C1`: the EC50 is over 200 µM and the IC50 was 55 µM.
`COC(=O)CC1N=C(NC#N)N(CCc2c[nH]c3ccccc23)C1=O` (stereo not given): the outcome was inactive.
Same read-out and setting: then `Cc1ccc(S(=O)(=O)N2CCC3(C(/C=C/c4ccccc4)=Nc4ccccc43)C2c2ccccc2)cc1` (stereo not given), with “inactive”.
As for `CCOc1ccc(N=Nc2ccc3oc(=O)c(C(=O)Nc4ccc(OC)cc4)cc3c2)cc1`, the EC50 is over 8.51 µM and the IC50 was over 8.51 µM.
As for `CNNC1=NS(=O)(=O)c2cc(C(=O)OC)c(Cl)cc2S1`, the EC50 is over 200 µM and the IC50 was over 200 µM.
With `CC(C)C(=O)/C=C/c1ccccc1`, the EC50 was over 200 µM and the IC50 came to 57.5 µM.
In the case of `CCOC(=O)CC1=NC(=Nc2cc(Cl)ccc2Cl)SC1`, the EC50 was over 77.6 µM and the IC50 was over 77.6 µM.
Consider `NS(=O)(=O)c1ccc(NNC(=O)c2cccc3c(=O)c4ccccc4[nH]c23)cc1`, for which the EC50 is over 200 µM and the IC50 came to 58.9 µM.
On to `Brc1ccc2c(-c3nc(-c4c[nH]c5ccccc45)cs3)c[nH]c2c1`, for which the EC50 is over 100 µM and the IC50 is 6.46 µM.
In the same order, the values of `O=C(O)c1ccccc1C(=O)Cc1ccccc1` are over 200 µM and over 200 µM.
With `O=C1O/C(=C(/Cl)c2c3ccccc3cc3ccccc23)c2ccccc21`, the EC50 is over 200 µM and the IC50 amounted to 10.2 µM.
In the same order, the values of `COc1ccc2nc3cccc([N+](=O)[O-])c3c(NCCC(=O)O)c2c1` are over 200 µM and 4.57 µM.
For the compound `CC(C)OC(=O)C1=C(O)c2ccccc2S(=O)(=O)N1C`, the EC50 was over 832 µM and the IC50 was found to be 56.2 µM.
`N=C1C=C/[N+](=C\C=CCO)C([O-])=N1`: the outcome was active.
On to `Cc1ccc(S(=O)(=O)OI(C#CC(C)(C)C)c2ccccc2)cc1`, for which the EC50 is over 200 µM and the IC50 was 1.05 µM.
For `C[C@]12CCC3=NCCCN3C1=CC[C@@H]1[C@@H]2CC[C@@]2(C)[C@H]1CC[C@]2(C)O` the same measures were over 47.9 µM and over 47.9 µM.
In the same order, the values of `N=c1sc(N2CCOCC2)nn1CC(=O)c1ccccc1` are over 200 µM and 129 µM.
For `CC(C)(C)OC(=O)NC(CC(=O)OCc1ccccc1)C(=O)NC(C)(C)C(N)=O` (stereo not given) (Boc-[ξD](OBn)-[Aib]-NH2) the same measures were over 200 µM and over 200 µM.
In the case of `CC(SC(=O)Nc1ccc(N=Nc2ccccc2)cc1)C(=O)O` (stereo not given), the outcome was inactive.
For `NC(=O)CNC(=O)c1ccccc1SC(=O)NCCCCl`, the EC50 was 3.72 µM and the IC50 turned out to be 64.6 µM.
For `NC1=N[C@H]2CS[C@@H](CCCCC(=O)ON3C(=O)CCC3=O)[C@H]2N1` the same measures were over 589 µM and over 589 µM.
In the same order, the values of `N#Cc1ccccc1OCCOc1ccccc1C#N` are over 200 µM and over 200 µM.
As to `CSc1n[nH]c(N)c1C(=O)Nc1ccc(C)cc1`, the EC50 is over 200 µM and the IC50 amounted to 95.5 µM.
In the same order, the values of `Cc1nn(C)c(N)c1N=O` are over 200 µM and over 200 µM.
With `CCCCCCCCCCCCP(=O)(O)OCC(N)C(=O)O` (stereo not given), the EC50 was over 200 µM and the IC50 was 83.2 µM.
With `CCCc1cc(=O)oc2c3c(c4c(c12)OC(C)(C)[C@H](O)[C@@H]4O)O[C@@H](C)[C@H](C)[C@@H]3O`, the EC50 was over 200 µM and the IC50 came to 87.1 µM.
In the same order, the values of `CCCCCCc1cc2c(C)c(C)c(=O)oc2cc1OCCCOc1cc2oc(=O)c(C)c(C)c2cc1CCCCCC` are over 22.9 µM and over 22.9 µM.
In the same order, the values of `Cc1ccc2cc(NC(=O)CBr)c3ccc(C)nc3c2n1` are over 2 µM and 0.955 µM.
In the same order, the values of `O=[N+]([O-])c1cnc(-c2ccc(F)cc2)n1CCO` are over 200 µM and over 200 µM.

(Values after PubChem BioAssay AID179 (DTP/NCI, 2004).)
